Source: ChEMBL document CHEMBL1201862, “PubChem BioAssay data set” (2004)
Active and inactive are the calls of the source.

What was measured:
[1] = tested on: Streptococcus sp. 'group A'; test: growth inhibition of control SK(-) GAS strain, dose response, counter-screen for streptokinase expression inhibitor project, luminescence, kanamycin, BacTiterGlo, confirmation (AID 1900); assay type: functional, organism-based
Streptokinase A = target: T1, Streptokinase A (Streptococcus pyogenes serotype M1, UniProt P10520); test: S. pyogenes streptokinase expression inhibitors, potency, dose response, plasminogen activation absorbance, OD405 (AID 1914); assay type: functional, Streptococcus pyogenes M1 GAS;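 also: secreted streptokinase activity via plasminogen activation per viability signal from cell pellet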
T1 sequence (P10520 whole entry): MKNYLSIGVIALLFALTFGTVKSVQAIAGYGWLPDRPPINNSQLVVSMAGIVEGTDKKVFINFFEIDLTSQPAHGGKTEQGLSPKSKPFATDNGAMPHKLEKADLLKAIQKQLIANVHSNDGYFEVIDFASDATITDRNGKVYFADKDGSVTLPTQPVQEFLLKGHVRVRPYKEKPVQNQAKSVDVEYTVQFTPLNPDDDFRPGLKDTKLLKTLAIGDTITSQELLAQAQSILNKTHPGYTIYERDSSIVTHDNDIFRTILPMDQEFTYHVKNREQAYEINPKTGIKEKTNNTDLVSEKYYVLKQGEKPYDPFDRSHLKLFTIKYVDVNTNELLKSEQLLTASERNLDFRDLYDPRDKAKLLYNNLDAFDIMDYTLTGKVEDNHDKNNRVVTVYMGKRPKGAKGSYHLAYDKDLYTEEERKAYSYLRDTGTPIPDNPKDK

Phospholipase A2 = Phospholipase A2 (Homo sapiens, UniProt P04054); assay type: functional;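 also: confirmatory dose-response counterscreen on phospholipase A2, testing hits that came from an ultra-high-throughput screen for ATG4B inhibitors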
[2] = Luminescence Cell-Based Dose Retest to Confirm Inhibitors of Cancer Stem Cells. [Related pubchem assays (depositor defined):AID2717, AID2721]; assay type: functional; conditions: Homo sapiens
[3] = target: T2, Corticotropin-releasing factor receptor 2/Corticotropin-releasing factor-binding protein (Homo sapiens, UniProt P24387+Q13324); test: activators of CRF receptor 2 with binding protein – uHTS hits, confirmation (AID 602473); assay type: functional; conditions: read-out: EC50_Mean
T2 sequence (Q13324 whole entry): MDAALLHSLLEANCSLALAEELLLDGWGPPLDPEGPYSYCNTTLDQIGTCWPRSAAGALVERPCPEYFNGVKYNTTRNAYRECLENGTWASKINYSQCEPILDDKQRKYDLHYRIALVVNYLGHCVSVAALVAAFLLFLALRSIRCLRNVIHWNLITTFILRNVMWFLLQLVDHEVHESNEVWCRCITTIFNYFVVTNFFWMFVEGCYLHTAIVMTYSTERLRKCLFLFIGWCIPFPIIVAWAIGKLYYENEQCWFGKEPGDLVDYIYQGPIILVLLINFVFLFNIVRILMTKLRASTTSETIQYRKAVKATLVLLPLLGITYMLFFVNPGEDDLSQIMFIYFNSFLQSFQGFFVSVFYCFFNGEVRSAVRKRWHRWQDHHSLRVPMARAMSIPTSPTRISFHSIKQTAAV
T2 sequence (P24387 whole entry): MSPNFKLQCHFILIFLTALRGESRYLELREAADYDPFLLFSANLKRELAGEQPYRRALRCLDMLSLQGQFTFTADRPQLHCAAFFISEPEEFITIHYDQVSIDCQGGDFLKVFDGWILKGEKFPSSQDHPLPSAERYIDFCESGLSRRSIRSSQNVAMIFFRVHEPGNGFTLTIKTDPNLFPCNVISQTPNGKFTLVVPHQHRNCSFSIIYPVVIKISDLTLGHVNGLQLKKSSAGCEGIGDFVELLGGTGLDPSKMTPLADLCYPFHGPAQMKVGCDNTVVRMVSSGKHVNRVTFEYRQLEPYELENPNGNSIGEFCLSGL

Cysteine protease ATG4B = Cysteine protease ATG4B (Homo sapiens, UniProt Q9Y4P1); assay type: functional;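 also: Fluorescence-based dose-response confirmation assay measuring inhibition of ATG4B activity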
Streptococcus = test: Group A Streptococcus viability loss, dose response, counter-screen for streptokinase expression inhibitor project, luminescence, BacTiterGlo (AID 1915); assay type: functional, organism-based;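 also: potency for reduction of bacterial viability or growth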
Candida albicans [4] = test: growth inhibition of resistant C. albicans, dose response, CaCi-8, fluconazole, Alamar Blue, dry powder (AID 488807); assay type: functional, organism-based
Candida albicans [5] = test: single-agent growth inhibition of C. albicans, dose response, counter-screen for antifungal drug resistance project, C. albicans CaCi-2, dry powder (AID 488802); assay type: functional, organism-based
Candida albicans [6] = test: growth inhibition of resistant C. albicans, dose response, CaCi-8 strain, fluconazole, dry powder, set 4 (AID 488950); assay type: functional, organism-based
Candida albicans [7] = test: fluconazole resistance reversal in C. albicans, dose response, CaCi-2 strain, Alamar Blue, dry powder, set 4 (AID 488943); assay type: functional, organism-based
NIH3T3 = test: cytotoxicity in NIH-3T3 fibroblasts, dose response, cytotoxicity control for antifungal drug resistance project, cell-based, Alamar Blue, fluconazole, dry powder (AID 488809); assay type: functional; conditions: Mus musculus
[8] = target: T3, Sentrin-specific protease 7 (Homo sapiens, UniProt Q9BQF6); test: SENP7 protease inhibitors, SAR follow-up, biochemical, luminescence, set 2 (AID 588600); assay type: functional
T3 sequence (Q9BQF6 whole entry): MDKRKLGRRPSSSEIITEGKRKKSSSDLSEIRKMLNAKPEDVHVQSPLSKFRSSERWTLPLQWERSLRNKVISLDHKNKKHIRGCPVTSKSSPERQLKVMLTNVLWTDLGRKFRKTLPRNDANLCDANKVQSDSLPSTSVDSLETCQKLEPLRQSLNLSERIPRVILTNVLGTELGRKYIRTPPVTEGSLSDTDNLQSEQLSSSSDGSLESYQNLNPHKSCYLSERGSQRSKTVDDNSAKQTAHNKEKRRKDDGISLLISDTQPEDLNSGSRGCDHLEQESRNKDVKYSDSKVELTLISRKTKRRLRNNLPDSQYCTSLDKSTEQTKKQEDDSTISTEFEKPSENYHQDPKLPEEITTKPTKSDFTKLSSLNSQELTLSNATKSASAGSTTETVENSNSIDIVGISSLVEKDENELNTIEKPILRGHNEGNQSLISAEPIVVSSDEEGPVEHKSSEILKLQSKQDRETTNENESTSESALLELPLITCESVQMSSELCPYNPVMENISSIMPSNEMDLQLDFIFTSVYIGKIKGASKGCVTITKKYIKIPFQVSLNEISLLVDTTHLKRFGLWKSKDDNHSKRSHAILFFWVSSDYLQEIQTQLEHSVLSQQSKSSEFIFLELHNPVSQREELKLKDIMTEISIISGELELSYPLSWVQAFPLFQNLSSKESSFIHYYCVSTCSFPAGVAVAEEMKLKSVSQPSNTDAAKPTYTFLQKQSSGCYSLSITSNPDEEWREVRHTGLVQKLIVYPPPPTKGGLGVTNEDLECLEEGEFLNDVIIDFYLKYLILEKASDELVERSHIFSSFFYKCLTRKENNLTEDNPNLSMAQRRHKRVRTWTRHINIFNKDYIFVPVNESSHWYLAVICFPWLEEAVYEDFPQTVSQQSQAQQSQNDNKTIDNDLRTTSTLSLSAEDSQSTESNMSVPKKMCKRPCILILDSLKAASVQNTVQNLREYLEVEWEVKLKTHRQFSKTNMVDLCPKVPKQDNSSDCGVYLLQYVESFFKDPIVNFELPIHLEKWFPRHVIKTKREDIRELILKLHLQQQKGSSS

[9] = target: T4, Sentrin-specific protease 6 (Homo sapiens, UniProt Q9GZR1); test: SENP6 protease inhibitors, SAR follow-up, biochemical, luminescence, set 2 (AID 588598); assay type: functional
T4 sequence (Q9GZR1 whole entry): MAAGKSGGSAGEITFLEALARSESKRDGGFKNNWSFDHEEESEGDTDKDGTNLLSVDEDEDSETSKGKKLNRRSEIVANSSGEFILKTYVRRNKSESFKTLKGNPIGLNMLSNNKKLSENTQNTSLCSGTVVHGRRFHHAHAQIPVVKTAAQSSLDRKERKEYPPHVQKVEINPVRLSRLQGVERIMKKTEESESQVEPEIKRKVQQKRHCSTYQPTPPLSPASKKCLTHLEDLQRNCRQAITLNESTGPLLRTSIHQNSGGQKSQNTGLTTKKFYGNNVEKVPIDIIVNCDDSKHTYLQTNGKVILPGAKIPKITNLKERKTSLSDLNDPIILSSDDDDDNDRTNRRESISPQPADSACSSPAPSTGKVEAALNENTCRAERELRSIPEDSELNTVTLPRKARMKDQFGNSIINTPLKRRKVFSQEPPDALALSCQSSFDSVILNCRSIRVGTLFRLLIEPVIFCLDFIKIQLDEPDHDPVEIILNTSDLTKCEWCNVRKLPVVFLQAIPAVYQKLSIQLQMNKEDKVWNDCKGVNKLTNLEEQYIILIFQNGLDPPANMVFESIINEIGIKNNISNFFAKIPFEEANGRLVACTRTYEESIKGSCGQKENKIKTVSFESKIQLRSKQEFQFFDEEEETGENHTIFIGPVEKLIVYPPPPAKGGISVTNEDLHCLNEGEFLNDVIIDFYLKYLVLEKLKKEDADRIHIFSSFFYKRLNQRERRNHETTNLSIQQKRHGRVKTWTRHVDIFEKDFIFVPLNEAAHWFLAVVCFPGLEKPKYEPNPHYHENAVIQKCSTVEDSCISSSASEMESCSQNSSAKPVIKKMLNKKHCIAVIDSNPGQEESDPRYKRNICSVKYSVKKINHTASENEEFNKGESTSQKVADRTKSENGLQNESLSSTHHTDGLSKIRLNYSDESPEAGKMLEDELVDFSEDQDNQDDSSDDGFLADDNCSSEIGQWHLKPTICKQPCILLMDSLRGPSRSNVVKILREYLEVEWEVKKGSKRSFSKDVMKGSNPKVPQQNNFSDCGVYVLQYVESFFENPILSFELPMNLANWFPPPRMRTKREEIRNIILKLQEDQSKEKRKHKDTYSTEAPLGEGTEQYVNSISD

[10] = target: T5, Sentrin-specific protease 8 (Homo sapiens, UniProt Q96LD8); test: SENP8 protease inhibitors, SAR follow-up, biochemical, luminescence, set 2 (AID 588601); assay type: functional
T5 sequence (Q96LD8 whole entry): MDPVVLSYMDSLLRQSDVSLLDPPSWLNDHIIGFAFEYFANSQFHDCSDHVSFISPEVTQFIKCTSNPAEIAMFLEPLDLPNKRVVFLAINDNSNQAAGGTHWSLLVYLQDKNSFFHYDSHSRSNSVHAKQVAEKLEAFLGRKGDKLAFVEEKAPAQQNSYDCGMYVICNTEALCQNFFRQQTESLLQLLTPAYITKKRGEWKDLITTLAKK

Caspase-3 [11] = target: T6, Caspase-3 (Homo sapiens, UniProt P42574); test: caspase-3 inhibitors as off-family protease, SAR follow-up, selectivity assay for SENP protease inhibitor project, biochemical, luminescence, set 2 (AID 588599); assay type: functional
T6 sequence (P42574 whole entry): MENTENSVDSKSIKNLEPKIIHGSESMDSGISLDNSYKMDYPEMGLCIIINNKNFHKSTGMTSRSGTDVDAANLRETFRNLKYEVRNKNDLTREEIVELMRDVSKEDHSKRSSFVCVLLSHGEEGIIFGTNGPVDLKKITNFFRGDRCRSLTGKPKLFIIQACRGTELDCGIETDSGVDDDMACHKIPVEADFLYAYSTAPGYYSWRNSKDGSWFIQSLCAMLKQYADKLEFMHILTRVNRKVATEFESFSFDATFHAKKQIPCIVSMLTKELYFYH

[12] = target: T4, Sentrin-specific protease 6; test: SAR Analysis of small molecule inhibitors of Sentrin-specific protease 6 (SENP6) using a Luminescent assay. [Related pubchem assays (depositor defined):AID2582, AID2599]; assay type: functional
Caspase-3 [13] = target: T6, Caspase-3; test: SAR Analysis of small molecule inhibitors of Sentrin-specific proteases (SENPs) using a Caspase-3 Selectivity assay. [Related pubchem assays (depositor defined):AID2540, AID2599, AID434973, AID489001]; assay type: functional
[14] = target: T5, Sentrin-specific protease 8; test: SENP8 protease inhibitors, SAR follow-up, biochemical, luminescence (AID 504501); assay type: functional
[15] = target: T3, Sentrin-specific protease 7; test: SENP7 protease inhibitors, SAR follow-up, biochemical, luminescence (AID 504497); assay type: functional
[16] = THP-1 cell cytotoxicity, cytotoxicity control, set 4 (AID 504911); assay type: functional; conditions: Mycobacterium tuberculosis
[17] = THP-1 cell cytotoxicity, dose response, cytotoxicity control, set 3 (AID 504852); assay type: functional; conditions: Mycobacterium tuberculosis
[18] = Vero cell cytotoxicity, cytotoxicity control for M. tuberculosis inhibitor project, purified and synthesized samples, set 3 (AID 504684); assay type: functional
[19] = target: DNA dC->dU-editing enzyme APOBEC-3A (Homo sapiens, UniProt P31941); test: SAR analysis of small molecule inhibitors of APOBEC3A DNA Deaminase via a fluorescence-based single-stranded DNA deaminase assay.; assay type: functional; conditions: read-out: IC50_Mean
[20] = target: DNA dC->dU-editing enzyme APOBEC-3G (Homo sapiens, UniProt Q9HC16); test: APOBEC3G deaminase inhibitors, SAR follow-up, biochemical, fluorescence, single-stranded DNA substrate (AID 602136); assay type: functional; conditions: read-out: IC50_Mean
DNA dC->dU-editing enzyme APOBEC-3G, sequence (Q9HC16 whole entry): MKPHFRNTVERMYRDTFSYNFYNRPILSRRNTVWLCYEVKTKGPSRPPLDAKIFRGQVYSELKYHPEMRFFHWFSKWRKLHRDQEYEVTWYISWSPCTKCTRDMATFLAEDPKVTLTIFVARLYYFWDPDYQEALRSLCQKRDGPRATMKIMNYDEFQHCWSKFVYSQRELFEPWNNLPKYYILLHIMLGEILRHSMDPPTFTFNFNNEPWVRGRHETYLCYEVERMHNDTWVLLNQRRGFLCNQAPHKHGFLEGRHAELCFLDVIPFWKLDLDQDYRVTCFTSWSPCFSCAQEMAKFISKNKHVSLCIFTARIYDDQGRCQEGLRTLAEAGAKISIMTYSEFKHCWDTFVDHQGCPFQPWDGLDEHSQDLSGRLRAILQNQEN

Phospholipase A2, sequence (P04054 whole entry): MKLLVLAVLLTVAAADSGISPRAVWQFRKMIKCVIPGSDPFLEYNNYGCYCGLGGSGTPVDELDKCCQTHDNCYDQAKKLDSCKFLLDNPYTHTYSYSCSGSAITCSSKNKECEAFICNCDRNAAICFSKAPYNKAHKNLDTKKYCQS
DNA dC->dU-editing enzyme APOBEC-3A, sequence (P31941 whole entry): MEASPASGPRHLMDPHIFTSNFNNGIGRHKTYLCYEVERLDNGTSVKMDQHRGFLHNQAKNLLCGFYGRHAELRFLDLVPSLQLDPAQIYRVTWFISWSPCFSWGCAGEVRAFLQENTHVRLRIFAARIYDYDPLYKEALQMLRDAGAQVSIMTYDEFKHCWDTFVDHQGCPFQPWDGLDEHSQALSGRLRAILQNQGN
Cysteine protease ATG4B, sequence (Q9Y4P1 whole entry): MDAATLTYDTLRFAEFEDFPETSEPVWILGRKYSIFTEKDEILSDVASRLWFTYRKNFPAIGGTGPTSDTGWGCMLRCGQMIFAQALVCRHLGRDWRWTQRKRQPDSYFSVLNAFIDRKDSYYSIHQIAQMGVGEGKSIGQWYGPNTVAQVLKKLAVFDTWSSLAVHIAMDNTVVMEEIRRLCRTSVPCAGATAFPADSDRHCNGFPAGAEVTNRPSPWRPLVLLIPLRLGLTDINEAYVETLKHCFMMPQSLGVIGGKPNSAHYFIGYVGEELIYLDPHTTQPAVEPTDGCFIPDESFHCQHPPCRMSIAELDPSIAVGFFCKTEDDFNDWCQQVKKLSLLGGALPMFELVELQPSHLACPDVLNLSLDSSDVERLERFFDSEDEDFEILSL

Cc1cc(C)cc(-n2c(C)cc(/C=C3\C(=N)N4N=C(CC(C)C)SC4=NC3=O)c2C)c1
> 50 µM (not active): EC50 (Streptokinase A)
active: EC50 [1] 4.57 µM | IC50 (Phospholipase A2) 2.3 µM | AC50 [2] 2.82 µM | EC50 [3] 6.77 µM | IC50 (Cysteine protease ATG4B) 3.65 µM | EC50 (Streptococcus) 9.46 µM

O=C(c1ccc(Cl)c(Cl)c1)N1CCN(c2ccnc3cc(Cl)ccc23)CC1
active: AC50 (Candida albicans [4]) 1.14 µM | AC50 (Candida albicans [5]) 45.2 µM | AC50 (Candida albicans [6]) 0.515 µM | AC50 (Candida albicans [7]) 0.726 µM | AC50 (NIH3T3) 43.6 µM

Oc1ccccc1-c1nc(/C=C/c2ccccc2)no1
active: IC50 [8] 2.71 µM | IC50 [9] 2.12 µM | IC50 [10] 2.54 µM | IC50 (Caspase-3 [11]) 3.6 µM | IC50 [12] 8.4 µM | IC50 (Caspase-3 [13]) 6.9 µM | IC50 [14] 71 µM | IC50 [15] 2.8 µM

Cc1[nH]c(SCC(=O)N(C)c2ccccc2)nc(=O)c1C
active: CC50 [16] > 100 µM | CC50 [17] > 100 µM | CC50 [18] > 100 µM

O=C(CSc1nnc2scc(-c3ccc(Cl)cc3)n12)N1CCOCC1
inactive: IC50 [19] > 99 µM | IC50 [20] 28 µM
